Results: article PMC8213153 (PLoS ONE, 2021)
Converted amounts (≈) assume the structure as drawn. Where two headings read alike, the source gives them in different places.

What was measured:
[1] = tested on: IL-6; assay: IL-6 level of virus-infected Vero cells (ELISA); assay type: cell-based
Experimental: (§1) To enable measurement of IL-6, IL-10 and TNF-α levels, the culture medium of the treated cells was collected in sterile micro-tubes and centrifuged at 3,500 rpm for 20 minutes. The supernatants were carefully collected and diluted with aquadest at a 1:5 volume ratio and vortexed until homogenous. The samples were deposited onto a well-plate, added to ELISA reagents (Bioassay Technology Laboratory, Shanghai, China), and incubated at 37°C for 60 minutes. Reagent substrate solution was then added to the well and incubated for ten minutes at 37°C. The samples were measured for antigen concentration using the optical density (OD) plotted into the standard curves of IL-6, IL-10, and TNF-α.

[2] = cited from earlier work
[3] = Cytotoxicity (MTT) assay of single and dual combinatory drugs; assay type: cell-based; details: human; for viability at 48 h, 0.2 μg/mL / viability at 48 h, 2 μg/mL / viability at 48 h, 10 μg/mL / viability at 48 h, 100 μg/mL / viability at 48 h, 400 μg/mL: read-out: Cell Viability (%)
Experimental: Each tablet containing drugs was triturated and mixed until homogenous. Approximately 50 mg equivalent mass of drugs were weighed and added to dimethyl sulfoxide in order to solubilize the drugs. The suspension was sonicated in a water bath for 15 minutes before being added to Rosewell Park Memorial Institute (RPMI) media, sonicated again and vortexed to mix it until homogenous. The suspension was then filtered through a polycarbonate membrane with a pore size of 0.45 μm and then a pore size of 0.22 μm under aseptic conditions. The filtrate was mixed with 10% foetal bovine serum and penicillin streptomycin before being vortexed to produce a homogenous mixture to be used as a stock solution. The samples were prepared by diluting the stock solution of each drug with RPMI complete media at an appropriate level of dilution to produce a determined concentration. The dual combinatory drugs mixtures were prepared by mixing appropriate amounts of two drug stock solutions in order to produce a final concentration at the required level. The combinatory drugs were evaluated at both constant and non-constant ratios to evaluate their effects on the cytotoxicity, including; antagonistic, synergistic, or additive. A constant ratio of the mixture was achieved by adding drug solutions at the same ratio, thereby increasing each drug concentration, to produce dose escalation. In contrast, at a non-constant ratio, a fixed determined concentration of drug was added to increased doses of other drug solution in order to produce different levels of drug concentration.
The cytotoxic concentration (CC50) of drugs was performed by means of MTT assay at the Stem Cell Research and Development Center, Universitas Airlangga using human umbilical cord mesenchymal stem cells which had been obtained from human placenta tissue as approved by the Ethical Committee of Universitas Airlangga Hospital (Certificate number 101/KEH/2019 dated January 10, 2019). The cells were prepared as the primary cell culture and used for the cytotoxicity assay because of their sensitivity to chemicals. Cells were seeded into 96-well microplates at a concentration of 1x10^3 cells/well in 100 μL Alpha Minimum Essentials Medium (α-MEM, Gibco, USA) supplemented with 10% foetal bovine serum, 1% penicillin-streptomycin and 1% amphotericin-B. The plates were then incubated in a CO2 incubator at 37°C with 5% CO2 for 24 hours, at which point, the supernatant was replaced with α-MEM containing drugs at each concentration and incubated for a further 48 hours. Approximately 25μL of 3-(4,5-Dimethylthiazol-2-yl)-2,5-diphenyl tetrazolium-bromide (MTT) reagent at a concentration of 5mg/mL was subsequently added to each well and incubated for four hours at 37°C with 5% CO2. Purple formazan crystals were formed and observed under an inverted microscope. Dimethyl sulfoxide was added to each well with the complete solubilisation of formazan crystals subsequently being observed. The greater the number of formazan crystals formed, the lower the toxicity of the samples which were read for optical density of formazan using a multi reader at a measurement wavelength of 595 nm (Promega Glomax, USA). The CC50 value was analyzed by CompuSyn software (the ComboSyn Inc., accessed from www.combosyn.com).
In this study, the cytotoxicity assay was evaluated for single and dual combinatory drugs during a period of 48 hours of drug incubation. This assay was intended to evaluate the toxicity of dual combinatory drugs on normal cells. The combination ratios were calculated taking into consideration the usual therapeutic doses and plasma peak concentrations of the drugs. To determine this cytotoxicity, the drugs were mixed at both constant and non-constant ratios.

[4] = tested on: IL-10; assay: IL-10 level of virus-infected Vero cells (ELISA); assay type: cell-based
Experimental: as §1

[5] = tested on: SARS-CoV-2 virus; assay: microbe, parasite or virus in culture; assay type: cell-based; details: for Drug concentration that produced an undetected virus copy number: at 24, 48, and/or 72 hours' incubation; for IC50: Severe acute respiratory syndrome coronavirus 2, Vero
[6] = tested on: TNF-α; assay: TNF-α level of virus-infected Vero cells (ELISA); assay type: cell-based
Experimental: as §1

[7] = FAVIPIRAVIR-AZITHROMYCIN series
[8] = HYDROXYCHLOROQUINE-FAVIPIRAVIR series

## CC[C@H]1OC(=O)[C@H](C)[C@@H](O[C@H]2C[C@@](C)(OC)[C@@H](O)[C@H](C)O2)[C@H](C)[C@@H](O[C@@H]2O[C@H](C)C[C@H](N(C)C)[C@H]2O)[C@](C)(OC)C[C@@H](C)C(=O)[C@H](C)[C@@H](O)[C@]1(C)O [CLA, Clarithromycin]
[1]; 0.5 μg/mL, 24-h
  IL-6: 15.61 ± 0.85 ng/L
[1]; 0.5 μg/mL, 48-h
  IL-6: 28.56 ± 0.62 ng/L
[1]; 0.5 μg/mL, 72-h
  IL-6: 48.22 ± 0.35 ng/L
[1]; 4 μg/mL, 24-h
  IL-6: 14.85 ± 0.51 ng/L
[1]; 4 μg/mL, 48-h
  IL-6: 30.07 ± 0.09 ng/L
[1]; 4 μg/mL, 72-h
  IL-6: 51.13 ± 0.94 ng/L
[1]; 8 μg/mL, 24-h
  IL-6: 15.61 ± 0.57 ng/L
[1]; 8 μg/mL, 48-h
  IL-6: 34.67 ± 0.50 ng/L
[1]; 8 μg/mL, 72-h
  IL-6: 64.93 ± 2.50 ng/L
[1]; 1, 4, 8 μg/mL, 24, 48, 72h
  IL-6: ↘↘ (1, 4, 8 μg/mL; 24, 48, 72h)
[1]; Table 5
  IL-6 (in words): reduced
[2]; oral 250 mg Clarithromycin twice a day
  Peak Plasma Concentration: 1 µg/mL
[2]; oral 500 mg Clarithromycin twice a day
  Peak Plasma Concentration: 2.41 µg/mL
[3]; LOPIRITO-CLA experiment (Fig 5), 48 hours, CompuSyn, n = 3, read-out: CC50
  CC50 at 48 h: 2280 µg/mL
[3]; LOPIRITO-CLARITHROMYCIN series
  viability at 48 h, 0.2 μg/mL: 134%
  viability at 48 h, 2 μg/mL: 92.6%
  viability at 48 h, 10 μg/mL: 79.4%
  viability at 48 h, 100 μg/mL: 92.6%
  viability at 48 h, 400 μg/mL: 74.3%
[4]; 0.5 μg/mL, 24-h
  IL-10: 36.80 ± 1.13 pg/mL
[4]; 0.5 μg/mL, 48-h
  IL-10: 105.49 ± 1.32 pg/mL
[4]; 0.5 μg/mL, 72-h
  IL-10: 507.18 ± 0.00 pg/mL
[4]; 4 μg/mL, 24-h
  IL-10: 36.80 ± 0.08 pg/mL
[4]; 4 μg/mL, 48-h
  IL-10: 58.15 ± 1.41 pg/mL
[4]; 4 μg/mL, 72-h
  IL-10: 498.75 ± 0.00 pg/mL
[4]; 8 μg/mL, 24-h
  IL-10: 24.75 ± 0.58 pg/mL
[4]; 8 μg/mL, 48-h
  IL-10: 79.10 ± 0.00 pg/mL
[4]; 8 μg/mL, 72-h
  IL-10: 445.89 ± 0.07 pg/mL
[4]; 8 μg/mL, 48h
  IL-10: ↗↗ (8 μg/mL; 48h)
[4]; Table 5
  IL-10 levels (in words): increased
[5]; 0.5 μg/mL, 24-h
  Virus Titer: 38.47 viral protein fg/mL
[5]; 8 μg/mL, 24-h
  Virus Titer: 38.03 viral protein fg/mL
[5]; 8 μg/mL, 48-h
  Virus Titer: 39.09 viral protein fg/mL
[5]; 8 μg/mL, 72-h
  Virus Titer: 37.46 viral protein fg/mL
[5]; MoI 0.04
  Drug concentration that produced an undetected virus copy number: 8 µg/mL
[5]; 24h, MoI 0.04
  IC50: 4.6 µg/mL (≈ 6.15 µM)
[5]; 48h, MoI 0.04
  IC50: 0.6 µg/mL (≈ 0.802 µM)
[5]; 72h, MoI 0.04
  IC50: 0.9 µg/mL (≈ 1.2 µM)
[6]; 0.5 μg/mL, 24-h
  TNF-α: 20.39 ± 0.57 pg/mL
[6]; 0.5 μg/mL, 48-h
  TNF-α: 426.37 ± 1.40 pg/mL
[6]; 0.5 μg/mL, 72-h
  TNF-α: 612.06 ± 1.54 pg/mL
[6]; 4 μg/mL, 24-h
  TNF-α: 100.04 ± 1.44 pg/mL
[6]; 4 μg/mL, 48-h
  TNF-α: 404.07 ± 0.10 pg/mL
[6]; 4 μg/mL, 72-h
  TNF-α: 609.56 ± 0.14 pg/mL
[6]; 8 μg/mL, 24-h
  TNF-α: 43.92 ± 1.13 pg/mL
[6]; 8 μg/mL, 48-h
  TNF-α: 382.62 ± 0.86 pg/mL
[6]; 8 μg/mL, 72-h
  TNF-α: 609.56 ± 0.14 pg/mL
[6]; 24, 48, and 72 hours, cell without concentration
  TNF-α: No effects
[6]; Table 5
  TNF-α levels (in words): no effects

## NC(=O)c1nc(F)c[nH]c1=O [FAVI, Favipiravir]
[1]; 10 μg/mL, 24-h
  IL-6: 14.09 ± 1.53 ng/L
[1]; 10 μg/mL, 48-h
  IL-6: 37.28 ± 0.37 ng/L
[1]; 10 μg/mL, 72-h
  IL-6: 60.21 ± 0.49 ng/L
[1]; 15 μg/mL, 24-h
  IL-6: 22.18 ± 1.09 ng/L
[1]; 15 μg/mL, 48-h
  IL-6: 39.75 ± 1.67 ng/L
[1]; 15 μg/mL, 72-h
  IL-6: 68.61 ± 1.04 ng/L
[1]; to 100 μg/mL, 48h
  IL-6: ↘↘ (to 100 μg/mL; 48h)
[3]; CC50
  CC50 at 48 h: > 400 µg/mL
[3]; [7]
  viability at 48 h, 0.2 μg/mL: 105%
  viability at 48 h, 2 μg/mL: 104%
  viability at 48 h, 10 μg/mL: 109%
  viability at 48 h, 100 μg/mL: 110%
  viability at 48 h, 400 μg/mL: 126%
[3]; [8]
  viability at 48 h, 0.2 μg/mL: 92.5%
  viability at 48 h, 2 μg/mL: 71.9%
  viability at 48 h, 10 μg/mL: 72.4%
  viability at 48 h, 100 μg/mL: 66.2%
  viability at 48 h, 400 μg/mL: 66.8%
[4]; 10 μg/mL, 24-h
  IL-10: 31.38 ± 1.80 pg/mL
[4]; 10 μg/mL, 48-h
  IL-10: 125.32 ± 1.57 pg/mL
[4]; 10 μg/mL, 72-h
  IL-10: 465.82 ± 0.57 pg/mL
[4]; 15 μg/mL, 24-h
  IL-10: 27.97 ± 0.29 pg/mL
[4]; 15 μg/mL, 48-h
  IL-10: 100.89 ± 1.28 pg/mL
[4]; 15 μg/mL, 72-h
  IL-10: 411.24 ± 0.24 pg/mL
[4]; 10, 15 μg/mL, 48, 72h
  IL-10: ↗↗ (10, 15 μg/mL; 48, 72h)
[5]; 10 μg/mL, 48-h
  Virus Titer: 37.37 viral protein fg/mL
[5]; 15 μg/mL, 24-h
  Virus Titer: 38.87 viral protein fg/mL
[5]; MoI 0.04
  Drug concentration that produced an undetected virus copy number: 37.5 µg/mL
[5]; 24h, MoI 0.04
  IC50: 9.6 µg/mL (≈ 61.1 µM)
[5]; 48h, MoI 0.04
  IC50: 18.6 µg/mL (≈ 118 µM)
[5]; 72h, MoI 0.04
  IC50: < 10 µg/mL
[5]; at the drug concentration of the same line of Table 4, MoI 0.04
  Results (virus detection): 24, 48, 72h virus still detected with decreasing number
[6]; 10 μg/mL, 24-h
  TNF-α: 3.09 ± 1.23 pg/mL
[6]; 10 μg/mL, 48-h
  TNF-α: 416.51 ± 1.28 pg/mL
[6]; 10 μg/mL, 72-h
  TNF-α: 711.37 ± 0.70 pg/mL
[6]; 15 μg/mL, 24-h
  TNF-α: 98.18 ± 1.55 pg/mL
[6]; 15 μg/mL, 48-h
  TNF-α: 467.47 ± 3.11 pg/mL
[6]; 15 μg/mL, 72-h
  TNF-α: 725.48 ± 3.51 pg/mL
[6]; 10 ppm, 24h
  TNF-α: ↘↘ (10 ppm; 24h)
